Patent US8637684B2, “Tautomycetin and tautomycetin analog biosynthesis” (Wisconsin Alumni Research Foundation, priority 2010, dated 2014)

Experiments:
[1] = system: panel of PTPs (PTP1B, SHP1, SHP2, Lyp, HePTP, Meg2, FAP1, CD45, LAR, PTPα, VHR, VHX, Cdc14, low molecular weight PTP); assay: Screen against a panel of PTPs at 10 μM compound (pNPP hydrolysis); format: biochemical; conditions: pH 7, 25° C.
Method: The PTP activity was assayed using pNPP as a substrate at 25° C. in 50 mM 3,3-dimethylglutarate buffer, pH 7.0, containing 1 mM EDTA with an ionic strength of 0.15 M adjusted by NaCl. TTM, TTN and the engineered analogs were analyzed for inhibition of a panel of PTPs at 10 μM compound concentration. For each enzyme screened, test compounds were diluted to 20 μM in 100 μL and combined with 50 μL pNPP at a concentration of 4×Km. The reaction was initiated by the addition of 50 μL of 4× concentrated enzyme and pNPP was allowed to convert to the product p-nitrophenol. The reaction was quenched by the addition of 50 μL of 5N NaOH. Nonenzymatic hydrolysis of pNPP was corrected by measuring the control without the addition of enzyme. Production of p-nitrophenol was monitored by a Spectra MAX385 microplate spectrophotometer (Molecular Devices) at 405 nm using a molar extinction coefficient of 18,000 M^−1 cm^−1. IC50 values were calculated by fitting the absorbance at 405 nm versus inhibitor concentration to the following equation: AI/A0=IC50/(IC50+[I]) where AI is the absorbance at 405 nm of the sample in the presence of inhibitor; Ao is the absorbance at 405 nm in the absence of inhibitor; and [I] is the concentration of the inhibitor. […]

[2] = system: TCR-mediated tyrosine phosphorylation in Jurkat T cells; assay: Anti-CD3 (TCR) induced tyrosine phosphorylation in Jurkat T cells, immunoblot; format: cell-based; conditions: 2-4 μM, 2 hours pretreatment, anti-CD3 stimulation
Method: (§1) Jurkat T cells were grown at 37° C. under an atmosphere of 5% CO2 in RPMI medium 1640 supplemented with 10% FBS. Cells were pretreated with different concentrations of TTN, TTN D-1, or TTM for 2 hours and stimulated with […] anti-CD3 antibody (OKT3; eBioscience) for 5 min and 30 min, respectively. Subsequently, cells were spinned down at 2000 rpm in 4° C., and cell pellets were lysed in 50 mM Tris-HCl (pH 7.5), 150 mM NaCl, 10% glycerol, 1% NP-40, 50 mM NaF, 10 mM pyrophosphate, 5 mM idoacetate, 1 mM sodium orthovanadate, and the protease inhibitor mixture. After 30 min lysing on ice, the cell lysates were centrifuged at 13,200 rpm for 15 min. Total cellular proteins were separated by SDS/PAGE and transferred electrophoretically to nitrocellulose membrane, which was immunoblotted by appropriate antibodies followed by incubation with HRP-conjugated secondary antibodies. Blots were developed using Pierce Pico ECL reagent (Thermo) according to the manufacturer's instructions.
(§2) TTN induces immunosuppression by suppression of TCR-mediated tyrosine phosphorylation and ERK1/2 activity in T cells (Shim et al., 2002). However, the mechanism of action for TTN's ability to block TCR signaling remains undefined. […]

PP1 = conditions: literature values; cited from earlier work
SHP2 = molecular target: T1, SHP2 (Homo sapiens, UniProt Q06124); assay: PTP activity assay with pNPP as substrate: SHP2; format: biochemical
T1 construct: The expression and purification of the SHP2 catalytic domain (residues 262-528) were described previously; made in house
T1 sequence (Q06124 262-528): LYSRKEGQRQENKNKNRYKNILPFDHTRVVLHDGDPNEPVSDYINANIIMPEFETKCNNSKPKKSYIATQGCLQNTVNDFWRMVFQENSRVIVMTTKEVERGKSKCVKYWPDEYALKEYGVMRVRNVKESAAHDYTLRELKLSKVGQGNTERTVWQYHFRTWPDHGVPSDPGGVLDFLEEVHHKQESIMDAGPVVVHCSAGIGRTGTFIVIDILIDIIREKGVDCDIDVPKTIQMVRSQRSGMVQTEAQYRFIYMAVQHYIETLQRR
Method: The effect of the compounds on PTP-catalyzed hydrolysis of p-nitrophenyl phosphate (pNPP) was assessed at pH 7 and 25° C. Members of the PTP superfamily that were included in the screen included the cytosolic PTPs, PTP1B, SHP1, SHP2, Lyp, HePTP, Meg2, and FAP1, the receptor-like PTPs, CD45, LAR, and PTPα, the dual specificity phosphatases VHR, VHX, and Cdc14, and the low molecular weight PTP.
Therefore, all of the IC50 values reported in this study directly reflect the true affinity of the compound for the enzymes tested.

PP2A = conditions: literature values; cited from earlier work
[3] = system: TCR-mediated ERK1/2 activation in Jurkat T cells; assay: Anti-CD3 (TCR) induced ERK1/2 activation in Jurkat T cells, immunoblot; format: cell-based; conditions: 2 hours pretreatment, anti-CD3 stimulation
Method: as §1, §2

SMILES: CO[C@H]([C@H](O)CC(=O)[C@@H](C)[C@@H](O)CC[C@@H](C)[C@@H]1O[C@]2(CC[C@@H](C)[C@H](CC[C@H](C)C(C)=O)O2)CC[C@@H]1C)[C@H](OC(=O)C[C@@H](O)C1=C(C)C(=O)OC1=O)C(C)C [TTM, tautomycin, reference compound]
- inhibitory activity against the panel of PTPs [1]: neither TTM nor its analogs exhibited any inhibitory activity
- effect on TCR-mediated tyrosine phosphorylation [2]: had no effect
- IC50 (PP1): 22 to 32 nM
- SHP2 inhibitory activity (in words) (SHP2): does not inhibit SHP2 activity
- IC50 (PP2A): 22 to 32 nM
- effect on TCR-mediated ERK1/2 activation [3]: no appreciable change
